Patent publication US4073903A, “3-Desacetoxymethyl-3- 5'(1-methyltetrazolyl)thio!methyl-7- 1-(4-nitr oimidazolyl)acetyl!aminocephalosporanic acid” (Pierrel S.p.A., priority 1975, dated 1978)
≈ marks a conversion by molar mass, not a printed value. Counter-ions that a name gives are not always drawn. Like-named read-outs stand apart in the source and are kept apart here.

Key:
Staphylococcus aureus = assay: MIC, twofold serial broth dilution (Table I); type: cell-based; conditions: 24 h, 37° C, read-out: Minimum inhibitory concentration (MIC)
Streptococcus mitis = assay: MIC, twofold serial broth dilution (Table I); type: cell-based; conditions: ATCC9895, strain ATCC 9895 Ty V, Todd Hewitt Broth, 37° C, 24 hours, read-out: Minimum inhibitory concentration (MIC)
Streptococcus bovis = assay: MIC, twofold serial broth dilution (Table I); type: cell-based; conditions: Streptococcus equinus, ATCC15351; strain ATCC 15351; Todd Hewitt Broth; 37° C, 24 hours; read-out: Minimum inhibitory concentration (MIC)
Streptococcus uberis = assay: MIC, twofold serial broth dilution (Table I); type: cell-based; conditions: ATCC9927, strain ATCC 9927, Todd Hewitt Broth, 37° C, 24 hours, read-out: Minimum inhibitory concentration (MIC)
Streptococcus faecalis = assay: MIC, twofold serial broth dilution (Table I); type: cell-based; conditions: Enterococcus faecalis; strain ISM 66/54; Tryptose Phosphate Broth; 37° C, 24 hours; read-out: Minimum inhibitory concentration (MIC)
Diplococcus pneumoniae = assay: MIC, twofold serial broth dilution (Table I); type: cell-based; conditions: Streptococcus pneumoniae; strain Ty XXVII-LRP 53; Todd Hewitt Broth; 37° C, 24 hours; read-out: Minimum inhibitory concentration (MIC)
Text: (§1) In Table I the minimum inhibitory concentrations (MIC) of P-75123 against a variety of Gram-positive and Gram-negative bacteria are listed.

Shigella flexneri = assay: MIC, twofold serial broth dilution (Table I); type: cell-based; conditions: strain ISM-LRP 40, Tryptose Phosphate Broth, 37° C, 24 hours, read-out: Minimum inhibitory concentration (MIC)
Text: as §1

Shigella sonnei = assay: MIC, twofold serial broth dilution (Table I); type: cell-based; conditions: strain ISM-LRP 5, Tryptose Phosphate Broth, 37° C, 24 hours, read-out: Minimum inhibitory concentration (MIC)
Text: as §1

Escherichia coli [1] = assay: MIC, twofold serial broth dilution (Table I); type: cell-based; conditions: ATCC19138, strain ATCC 19138 0 group 6, Tryptose Phosphate Broth, 37° C, 24 hours, read-out: Minimum inhibitory concentration (MIC)
Shigella dysenteriae = assay: MIC, twofold serial broth dilution (Table I); type: cell-based; conditions: 24 h, read-out: Minimum inhibitory concentration (MIC)
Enterobacter cloacae = assay: MIC, twofold serial broth dilution (Table I); type: cell-based; conditions: strain ISM 71/32, Tryptose Phosphate Broth, 37° C, 24 hours, read-out: Minimum inhibitory concentration (MIC)
[2] = system: Enterobacter liquefaciens; assay: MIC, twofold serial broth dilution (Table I); type: cell-based; conditions: strain ISM 65/33, Tryptose Phosphate Broth, 37° C, 24 hours, read-out: Minimum inhibitory concentration (MIC)
Salmonella typhi = assay: MIC, twofold serial broth dilution (Table I); type: cell-based; conditions: Salmonella enterica, 24 h, read-out: Minimum inhibitory concentration (MIC)
Arizona sp. = assay: MIC, twofold serial broth dilution (Table I); type: cell-based; conditions: strain ISM 67/9; Tryptose Phosphate Broth; 37° C, 24 hours; read-out: Minimum inhibitory concentration (MIC)
Serratia marcescens = assay: MIC, twofold serial broth dilution (Table I); type: cell-based; conditions: strain ISM 68/189, Mueller Hinton Broth, 37° C, 24 hours, read-out: Minimum inhibitory concentration (MIC)
Citrobacter freundii = assay: MIC, twofold serial broth dilution (Table I); type: cell-based
Klebsiella pneumoniae [3] = assay: MIC, twofold serial broth dilution (Table I); type: cell-based; conditions: strain ISM 68/67' 370 V', Tryptose Phosphate Broth, 37° C, 24 hours, read-out: Minimum inhibitory concentration (MIC)
Proteus morganii = assay: MIC, twofold serial broth dilution (Table I); type: cell-based; conditions: Morganella morganii; strain ISM-LRP 18; Mueller Hinton Broth; 37° C, 24 hours; read-out: Minimum inhibitory concentration (MIC)
Proteus rettgeri = assay: MIC, twofold serial broth dilution (Table I); type: cell-based; conditions: Providencia rettgeri; strain ISM-LRP 21; Mueller Hinton Broth; 37° C, 24 hours; read-out: Minimum inhibitory concentration (MIC)
Proteus mirabilis = assay: MIC, twofold serial broth dilution (Table I); type: cell-based; conditions: 37° C, 24 hours, read-out: Minimum inhibitory concentration (MIC)
Pasteurella multocida = assay: MIC, twofold serial broth dilution (Table I); type: cell-based; conditions: ATCC6588, strain ATCC 6588, Tryptose Broth, 37° C, 24 hours, read-out: Minimum inhibitory concentration (MIC)
Brucella abortus = assay: microbe, parasite or virus in culture; type: cell-based; conditions: 24 h, read-out: Minimum inhibitory concentration (MIC)
Brucella suis = assay: microbe, parasite or virus in culture; type: cell-based; conditions: 24 h, read-out: Minimum inhibitory concentration (MIC)
Pseudomonas aeruginosa = assay: MIC, twofold serial broth dilution (Table I); type: cell-based; conditions: strain ISM-LRP 9, Tryptose Phosphate Broth, 37° C, 24 hours, read-out: Minimum inhibitory concentration (MIC)
Solubility = type: physicochemical
[4] = system: wide spectrum of microorganisms both Gram-positive and Gram-negative; assay: In vitro antimicrobial activity (overall statement); type: cell-based
[5] = system: systemically infected mice; assay: In vivo activity in systemically infected mice (overall statement); design: species or system Charles River CD 1 female mice; conditions: treatment of systemically infected mice
Klebsiella pneumoniae [6] = assay: MIC against clinical isolates, broth dilution test (Table II); conditions: for MIC: Klebsiella pneumoniae, 24 h
Escherichia coli [7] = assay: MIC against clinical isolates, broth dilution test (Table III); conditions: for MIC: Escherichia coli, 24 h
Escherichia coli [8] = assay: Treatment of mice systemically infected with Escherichia coli (Table V); conditions: in Mus musculus, 168 h, read-out: ED50 per treatment
Klebsiella pneumoniae [9] = conditions: in Mus musculus, 168 h, read-out: ED50 per treatment
Salmonella essen = assay: MIC against Ampicillin-resistant clinical isolates, broth dilution test (Table IV); conditions: Salmonella enterica, 24 h, read-out: Minimun inhibitory concentration (MIC)
Salmonella wien = assay: as above; conditions: Salmonella enterica, 24 h
Salmonella heidelberg = assay: as above; conditions: Salmonella enterica, 24 h, read-out: Minimun inhibitory concentration (MIC)
Stability as a solid = type: physicochemical
[10] = read-out: Minimum inhibitory concentration (MIC)

Cn1nnnc1SCC1=C(C(=O)O)N2C(=O)C(NC(=O)Cn3cnc([N+](=O)[O-])c3)C2SC1 (stereo not shown) [P-75123, 7-1-(1H-4-nitroimidazolyl)acetyl!amino-3-5-(1H-1-methyltetrazolyl)thio!methyl-3-cephem-4-carboxylic acid]
MIC (Staphylococcus aureus; strain ATTC 653P, Tryptose Phosphate Broth): 0.195 µg/mL (≈ 0.405 µM)
MIC (Staphylococcus aureus; strain ISM 72/10, Tryptose Phosphate Broth): 0.78 µg/mL (≈ 1.62 µM)
MIC (Streptococcus mitis): 0.195 µg/mL (≈ 0.405 µM)
MIC (Streptococcus bovis): 0.049 µg/mL (≈ 0.102 µM)
MIC (Streptococcus uberis): 0.097 µg/mL (≈ 0.201 µM)
MIC (Streptococcus faecalis): 100 µg/mL (≈ 208 µM)
MIC (Diplococcus pneumoniae): 0.097 µg/mL (≈ 0.201 µM)
MIC (Shigella flexneri): 0.78 µg/mL (≈ 1.62 µM)
MIC (Shigella sonnei): 1.56 µg/mL (≈ 3.24 µM)
MIC (Escherichia coli [1]): 0.78 µg/mL (≈ 1.62 µM)
MIC (Shigella dysenteriae): 0.78 µg/mL (≈ 1.62 µM)
MIC (Enterobacter cloacae): > 100 µg/mL
MIC [2]: 100 µg/mL (≈ 208 µM)
MIC (Salmonella typhi): 0.78 µg/mL (≈ 1.62 µM)
MIC (Arizona sp.): 0.78 µg/mL (≈ 1.62 µM)
MIC (Serratia marcescens): 100 µg/mL (≈ 208 µM)
MIC (Citrobacter freundii; 24 h, read-out: Minimum inhibitory concentration (MIC), strain ISM 65/74, Tryptose Phosphate Broth, 37° C): 1.56 µg/mL (≈ 3.24 µM)
MIC (Citrobacter freundii; strain ISM 69/30, Tryptose Phosphate Broth, 37° C, 24 hours, read-out: Minimum inhibitory concentration (MIC)): 0.78 µg/mL (≈ 1.62 µM)
MIC (Klebsiella pneumoniae [3]): 0.78 µg/mL (≈ 1.62 µM)
MIC (Proteus morganii): 50 µg/mL (≈ 104 µM)
MIC (Proteus rettgeri): 25 µg/mL (≈ 51.9 µM)
MIC (Proteus mirabilis; ATCC10005, strain ATCC 10005, Mueller Hinton Broth): 3.12 µg/mL (≈ 6.48 µM)
MIC (Proteus mirabilis; strain ISM 66/53, Mueller Hinton Broth): 3.12 µg/mL (≈ 6.48 µM)
MIC (Pasteurella multocida): 0.39 µg/mL (≈ 0.81 µM)
MIC (Brucella abortus): 25 µg/mL (≈ 51.9 µM)
MIC (Brucella suis): 12.5 µg/mL (≈ 26 µM)
MIC (Pseudomonas aeruginosa): > 100 µg/mL
Solubility in dimethylsulfoxide (Solubility; crystals, dimethylsulfoxide): soluble in dimethylsulfoxide
Solubility in water (Solubility; crystals, water): practically insoluble in water
"in vitro" antimicrobial activity [4]: high antimicrobial activity
activity "in vivo" [5]: very good activity
MIC (Klebsiella pneumoniae [6]; [10]): 1.56 µg/mL (≈ 3.24 µM)
MIC (Klebsiella pneumoniae [6]; read-out: Minimum inhibitory concentration (MIC), clinical isolate LRP 129): 0.39 µg/mL (≈ 0.81 µM)
MIC (Klebsiella pneumoniae [6]; read-out: Minimum inhibitory concentration (MIC), clinical isolate LRP 130): 6.25 µg/mL (≈ 13 µM)
MIC (Klebsiella pneumoniae [6]; read-out: Minimum inhibitory concentration (MIC), clinical isolate LRP 131): 3.12 µg/mL (≈ 6.48 µM)
MIC (Klebsiella pneumoniae [6]; read-out: Minimum inhibitory concentration (MIC), clinical isolate LRP 132): 0.39 µg/mL (≈ 0.81 µM)
MIC (Klebsiella pneumoniae [6]; read-out: Minimum inhibitory concentration (MIC), clinical isolate LRP 133): 0.78 µg/mL (≈ 1.62 µM)
MIC (Klebsiella pneumoniae [6]; read-out: Minimum inhibitory concentration (MIC), clinical isolate LRP 135): 3.12 µg/mL (≈ 6.48 µM)
MIC (Klebsiella pneumoniae [6]; read-out: Minimum inhibitory concentration (MIC), clinical isolate LRP 136): 3.12 µg/mL (≈ 6.48 µM)
MIC (Klebsiella pneumoniae [6]; read-out: Minimum inhibitory concentration (MIC), clinical isolate LRP 137): 0.78 µg/mL (≈ 1.62 µM)
Minimum inhibitory concentration (MIC) (Klebsiella pneumoniae [6]; clinical isolate LRP 134): 1.56 µg/mL (≈ 3.24 µM)
MIC (Escherichia coli [7]; [10]): 1.56 µg/mL (≈ 3.24 µM)
MIC (Escherichia coli [7]; read-out: Minimum inhibitory concentration (MIC), clinical isolate LRP 87): 3.12 µg/mL (≈ 6.48 µM)
MIC (Escherichia coli [7]; read-out: Minimum inhibitory concentration (MIC), clinical isolate LRP 110): 0.78 µg/mL (≈ 1.62 µM)
MIC (Escherichia coli [7]; read-out: Minimum inhibitory concentration (MIC), clinical isolate LRP 143): 0.78 µg/mL (≈ 1.62 µM)
MIC (Escherichia coli [7]; read-out: Minimum inhibitory concentration (MIC), clinical isolate LRP 152): 50 µg/mL (≈ 104 µM)
MIC (Escherichia coli [7]; read-out: Minimum inhibitory concentration (MIC), clinical isolate LRP 159): 0.78 µg/mL (≈ 1.62 µM)
Minimum inhibitory concentration (MIC) (Escherichia coli [7]; clinical isolate LRP 96): 1.56 µg/mL (≈ 3.24 µM)
Minimum inhibitory concentration (MIC) (Escherichia coli [7]; clinical isolate LRP 150): 1.56 µg/mL (≈ 3.24 µM)
Minimum inhibitory concentration (MIC) (Escherichia coli [7]; clinical isolate LRP 151): 1.56 µg/mL (≈ 3.24 µM)
Minimum inhibitory concentration (MIC) (Escherichia coli [7]; clinical isolate LRP 154): 1.56 µg/mL (≈ 3.24 µM)
Minimum inhibitory concentration (MIC) (Escherichia coli [7]; clinical isolate LRP 155): 1.56 µg/mL (≈ 3.24 µM)
Minimum inhibitory concentration (MIC) (Escherichia coli [7]; clinical isolate LRP 156): 1.56 µg/mL (≈ 3.24 µM)
Minimum inhibitory concentration (MIC) (Escherichia coli [7]; clinical isolate LRP 158): 1.56 µg/mL (≈ 3.24 µM)
Minimum inhibitory concentration (MIC) (Escherichia coli [7]; clinical isolate LRP 163): 1.56 µg/mL (≈ 3.24 µM)
ED50 (Escherichia coli [8]): 35 mg/kg
ED50 (Klebsiella pneumoniae [9]): 49 mg/kg
MIC (Salmonella essen): 1.56 µg/mL (≈ 3.24 µM)
MIC (Salmonella wien; read-out: Minimun inhibitory concentration (MIC), Ampicillin-resistant clinical isolate LRP 138): 3.12 µg/mL (≈ 6.48 µM)
MIC (Salmonella wien; read-out: Minimun inhibitory concentration (MIC), Ampicillin-resistant clinical isolate LRP 140): 6.25 µg/mL (≈ 13 µM)
MIC (Salmonella wien; read-out: Minimun inhibitory concentration (MIC), Ampicillin-resistant clinical isolate LRP 141): 6.25 µg/mL (≈ 13 µM)
MIC (Salmonella heidelberg): 1.56 µg/mL (≈ 3.24 µM)

Cn1nnnc1SCC1=C(C(=O)O)N2C(=O)C(NC(=O)Cn3cnc([N+](=O)[O-])c3)C2SC1 (stereo not shown) [sodium salt]
solubility (Solubility; sodium salt, water): ~500 mg/mL
Stability (Stability as a solid): stable as a solid
